Measurements: patent US6613307B1, “Aerosol formulations of salmeterol xinafoate” (SmithKline Beecham Corporation, priority 1998, dated 2003)

Experiments:
Type in all cases: physicochemical
[1] = Reproducibility: particle size and distribution by laser diffraction (Malvern Mastersizer), Example 11; conditions: 300 bar, 35° C., acetone 0.6% w/v; for Mean Particle Size: two different days
Description: Two different solutions of salmeterol xinafoate in acetone (0.6% w/v) were made and each solution was co-introduced with CO2 via a coaxial nozzle into the particle formation vessel using the apparatus described on two different days to give samples A and B. The operating conditions were 300 bar and 35° C., with flow rates of 0.2 ml/min for the salmeterol solution and 6 ml/min for the supercritical CO2. The crystallised salmeterol xinafoate provided from each solution was examined for particle size and size distribution.

[2] = Particle size analysis by laser diffraction (Malvern Mastersizer E), Example 3
Description: A solution of salmeterol xinafoate in acetone (0.6% w/v) was co-introduced with CO2 at 200 bar and 55° C. via a coaxial nozzle into the particle formation vessel using the apparatus described and shown in FIG. 1. A series of products was obtained by changing the flow rate ratio of salmeterol xinafoate solution/supercritical CO2, where the flow ratio is defined as: [formula]
The flow ratio was changed between 0.01 and 0.07, with a flow rate of 9 ml/min for the supercritical CO2.
The resultant dry, easily handlable products without significant static charge were examined by scanning electron microscopy (SEM) and by laser diffraction (Malvern Mastersizer E) for particle size analysis (see FIGS. 12-15).
The uniformity index is defined as: [formula]

[3] = Relative static charge: drug remaining coated to vial walls after rolling; conditions: after rolling drug in vial for 5 minutes
Description: Using samples prepared as described in Example 1, a simple test was devised to determine their relative static charge based on the quantity of drug remaining coated to the walls of a vial after rolling a predetermined quantity of drug in the vial for 5 minutes. The greater the drug remaining on the vial, the higher the relative static charge associated with the drug substance.

[4] = Dynamic bulk density (fluidisability) of salmeterol xinafoate powders; conditions: powder
Description: The dynamic bulk density (W) is indicative of a substance's fluidisability and is defined as: [formula]
where P is the packed bulk density (g.cm^−3), A is the aerated bulk density (g.cm^−3) and C is the compressibility (%) where C is calculated by the equation: [formula]
Conventionally crystallised salmeterol xinafoate, both before and after micronisation, was compared against salmeterol xinafoate made by the supercritical fluid method described herein. A solution of salmeterol xinafoate in acetone (0.63% w/v) was co-introduced with CO2 at 300 bar and 45° C. via a coaxial nozzle into the particle formation vessel using the apparatus described and shown in FIG. 1 to give sample 1. A solution of salmeterol xinafoate in acetone (0.50% w/v) was cointroduced with CO2 at 100 bar and 55° C. via a coaxial nozzle into the particle formation vessel using the apparatus described and shown in FIG. 1 to give sample 2. In each case, the solution flow rate was 0.4 ml/min and supercritical CO2 was co-introduced into the particle formation vessel at a flow rate of 9 ml/min.
The dynamic bulk densities are shown below in Table 2: […]

[5] = Scanning electron microscopy of particles; conditions: SEM; needle shaped particles from isopropanol (0.2% w/v), 150 bar, 60° C.
Description: In another experiment, a solution of salmeterol xinafoate in isopropanol (0.2% w/v) was co-introduced with CO2 at 150 bar and 60° C. via a coaxial nozzle into the particle formation vessel using the apparatus described and shown in FIG. 1. The dry, easily handlable product without significant static charge was examined by SEM (see FIG. 16) and found to be composed of needle shaped particles with a maximum particle dimension of up to 300 microns. Thus by controlling and changing the working conditions of the particle formation process, salmeterol xinafoate products composed of particles with different particle sizes and size distributions were produced.

SMILES | % < 5 μm [2] [%] | % < 10 μm [2] [%] | Mean Particle Size [2] | Uniformity index [2] | Dynamic Bulk Density W [4] [g · cm^−3] | further results
OCc1cc(C(O)CNCCCCCCOCCCCc2ccccc2)ccc1O (single isomer, unassigned) [Sample A, salmeterol xinafoate] | – | – | – | – | – | % < 5 microns [1]: 31.6%; % < 10 microns [1]: 67.8%; Uniformity index [1]: 9; Mean Particle Size [1]: 7.2 Microns
OCc1cc(C(O)CNCCCCCCOCCCCc2ccccc2)ccc1O (single isomer, unassigned) [Sample B, salmeterol xinafoate] | – | – | – | – | – | % < 5 microns [1]: 28.3%; % < 10 microns [1]: 64.5%; Uniformity index [1]: 9; Mean Particle Size [1]: 7.7 Microns
OCc1cc(C(O)CNCCCCCCOCCCCc2ccccc2)ccc1O (stereo not shown) [Conventionally crystallised salmeterol xinafoate (micronised] [reference compound] | >90 | >95 | 1-3 μm | 13.1 | 0.137 | % Drug Retaining on Vial [3]: 7.0%
OCc1cc(C(O)CNCCCCCCOCCCCc2ccccc2)ccc1O (stereo not drawn) [salmeterol xinafoate, 4-hydroxy-α^1-[[[6-(4-phenylbutoxy)hexyl]amino]methyl]-1,3-benzenedimethanol (salmeterol) 1-hydroxy-2-naphthalenecarboxylate (xinafoate)] | – | – | – | – | – | maximum particle dimension [5]: up to 300 microns

Second part, led by results:

% < 5 μm [2] [%] | % < 10 μm [2] [%] | Mean Particle Size [2] | Uniformity index [2] | Dynamic Bulk Density W [4] [g · cm^−3] | SMILES | further results
66.0 | 94.5 | 3.85 μm | 10.2 | 0.033 | OCc1cc(C(O)CNCCCCCCOCCCCc2ccccc2)ccc1O (stereo not shown) [SCF salmeterol xinafoate (sample 1), salmeterol xinafoate] | % Drug Retaining on Vial ([3]; sample 1): 2.5%
5.7 | 16.1 | 18.84 μm | 19.2 | 0.059 | OCc1cc(C(O)CNCCCCCCOCCCCc2ccccc2)ccc1O (stereo not shown) [SCF salmeterol xinafoate (sample 2), salmeterol xinafoate] | % Drug Retaining on Vial ([3]; sample 2): 5.7%
– | – | – | – | 0.312 | OCc1cc(C(O)CNCCCCCCOCCCCc2ccccc2)ccc1O (stereo not shown) [conventionally crystallised salmeterol xinafoate (non-micron] [reference compound] | –
